Test results as given in publication PMC4055585, “Pharmacokinetics of Anti-HBV Polyoxometalate in Rats” (PLoS ONE, 2014).
Several values for one entry are separate records, joined by “and”; a condition that tells them apart may be missing. Equal values may be shown once. Read-outs that look alike come from different tables or passages of the source.

Assays:
[1] = Tissue distribution after oral administration; format: in vivo, Wistar rats; details: oral 180 mg/kg
Procedure: Five rats for each duration, 2, 24, 48 and 96 h post-dose, were sacrificed by decapitation after administration of Compound 1. The whole brain, heart, liver, spleen, lung, kidney, uterus, testis, ovary, epididymis, stomach, intestine, pancreas, thymus, fat, and skeletal muscle were rapidly dissected and harvested. All tissues and organs were weighed on an analytical balance and frozen at −20°C until analysis.
The tissue samples (except for fat and pancreas) were aliquots into 0.1 g and dipped in 3 mL concentrated HNO3 in test tubes.
(§1) Feces, fat and pancreas samples were aliquots into 0.1 g and dipped in 1 mL concentrated H2SO4 in test tubes. […] 3 mL concentrated HNO3was added at 120°C for 12 h until thorough dissolution.
(§2) Concentrations of Compound 1 were determined by atomic spectrometry. Samples were analyzed directly by ICP-MS. Polyoxometalate concentrations were estimated directly from measured tungsten concentrations.

[2] = Urine and feces excretion after oral administration; format: in vivo, Wistar rats; details: oral 180 mg/kg
Procedure: Rats were placed in metabolism cages during the experiment to facilitate urine and feces collection. Urine and feces were collected during 0–1 h, 1–2, 2–4, 4–8, 8–12, 12–24, 24–48 and […]. Urine volume and feces weight were measured, and samples were frozen at −20°C until analysis.
(§3) The urine, bile, postdialysis serum and buffer samples were aliquots into 0.1 mL, treated in the same way as plasma samples.
as §1, §2

[3] = Bile excretion after oral administration (bile duct cannulation); format: in vivo, Rats; details: oral 180 mg/kg, % of the drug tested
Procedure: Bile excretion: Rats (n = 6, male and female in equal) were anesthetized with diethyl ether, and bile duct were cannulated with a polyethylene tube. After recovery from anesthesia, rates were orally administered Compound 1 at a dose of 180 mg/kg BW. The bile samples were collected during 0–1, 1–2, 2–4, 4–8, 8–12, 12–24 and 24–48 h by bile duct cannulation. The bile volume was measured, and samples were frozen at −20°C until analysis.
as §3, §2

rat plasma protein = test: Plasma protein binding by equilibrium dialysis; format: in vitro ADME; details: for Protein binding rate, Mean: six parallel samples
Procedure: Various amounts of Compound 1 were added to pooled male rat serum to yield concentrations of 9, 18 and 36 mg/mL. The dialysis membrane was Spectrapor II (Beijing Dingguo Changsheng Biotechnology Co. Ltd, China) with a molecular weight cutoff of 12,000 to 14,000. […] Dialyzed serum and buffer volumes were collected and frozen at −20°C until analysis, and binding data were corrected for fluid shifts that occurred during dialysis. Experiments were done in six parallel samples. The following formula was used to calculate plasma protein binding rate of Compound 1 under different concentrations: [drawing 1]
Cplasma: concentration of Compound 1;
Cbuffer: concentration of Compound 1 in buffer
as §3

[4] = rat, in vivo, iv, 180 mg/kg
[5] = rat, in vivo; for AUC0–96 (area under the curve up to 96 h) / AUC0–∞ (area under the total concentration-time curve) / CL (systemic clearance) / Cmax (maximum concentration) / MRT (mean residence time) / Tmax (time of peak concentration) / Vd (steady-state volume of distribution) / ke (elimination rate constant) / t1/2 (half-life): po
hepatitis B virus = test system: hepatitis B virus; set-up: method as in PMID 22264474; details: cited from earlier work
[6] = set-up: method as in earlier work; details: cited from earlier work

Substance: Cs2K4Na[SiW9Nb3O40].H2O [Compound 1]
- content in kidney and liver relative to the other tissues [1]: 10–70 times
- deposition in the brain [1]: Less deposition
- tissue with highest deposition ([1]; 16 tissues): kidney, followed by the stomach, intestine and liver
- content in tissues at 96 h relative to peak content ([1]; 96 h): less than 10%
- total excreted, % of the total amount administered ([2]; till 48 h): about 30.84%
- total excreted, % of the total amount administered ([2]; till 72 h): about 31.1%
- accumulative excretion rate, bile [3]: about 0.42%
- extent of binding to rat plasma protein (rat plasma protein; 36 mg/ml): moderately bound
- extent of binding to rat plasma protein (rat plasma protein; 9–18 mg/ml): highly bound
- Protein binding rate (single samples) (rat plasma protein; added concentration 9 mg/mL, rat serum, dialysis 48 h, 37°C, pH 7.4): 47.79% and 54.71% and 73.72% and 62.68% and 67.76% and 66.13%
- Protein binding rate, Mean (rat plasma protein; added concentration 9 mg/mL, dialysis 48 h): 62.13%
- Protein binding rate, Mean (rat plasma protein; added concentration 18 mg/mL, dialysis 48 h): 71.20%
- Protein binding rate, Mean (rat plasma protein; added concentration 36 mg/mL, dialysis 48 h): 49.00%
- AUC0–96 (area under the curve up to 96 h) [4]: 2549 ± 327.3 µg·h/mL
- AUC0–∞ (area under the total concentration-time curve) [4]: 2965 ± 342.8 µg·h/mL
- CL (systemic clearance) [4]: 15.34 ± 1.695 mL/h
- Cmax (maximum concentration) [4]: 235400 ± 66910 ng/mL
- MRT (mean residence time) [4]: 47.05 ± 3.529 h
- Tmax (time of peak concentration) [4]: 8.34 ± 5.16 min
- Vd (steady-state volume of distribution) [4]: 679.7 ± 114.7 mL
- compartment model fitted by the pharmacokinetic behavior [4]: two compartment model
- ke (elimination rate constant) [4]: 0.023 ± 0.004 h⁻¹
- t1/2 (half-life) [4]: 30.76 ± 4.658 h
- Tmax range [5]: 6 to 180 min
- half-life range [5]: 20 to 30 h
- absolute bioavailability ([5]; 180 mg/kg): 14.67%
- AUC0–96 (area under the curve up to 96 h) ([5]; 45 mg/kg): 150.9 ± 87.15 µg·h/mL
- AUC0–∞ (area under the total concentration-time curve) ([5]; 45 mg/kg): 165.1 ± 94.98 µg·h/mL
- CL (systemic clearance) ([5]; 45 mg/kg): 86.96 ± 42.45 mL/h
- Cmax (maximum concentration) ([5]; 45 mg/kg): 11130 ± 8370 ng/mL
- MRT (mean residence time) ([5]; 45 mg/kg): 36.45±4.495 H
- Tmax (time of peak concentration) ([5]; 45 mg/kg): 2.000±0.632 H
- Vd (steady-state volume of distribution) ([5]; 45 mg/kg): 3437 ± 1593 mL
- ke (elimination rate constant) ([5]; 45 mg/kg): 0.025 ± 0.002 h⁻¹
- t1/2 (half-life) ([5]; 45 mg/kg): 27.91±2.606 H
- AUC0–96 (area under the curve up to 96 h) ([5]; 180 mg/kg): 373.9 ± 112.7 µg·h/mL
- AUC0–∞ (area under the total concentration-time curve) ([5]; 180 mg/kg): 410.1 ± 128.5 µg·h/mL
- CL (systemic clearance) ([5]; 180 mg/kg): 117.1 ± 29.49 mL/h
- Cmax (maximum concentration) ([5]; 180 mg/kg): 30850 ± 14250 ng/mL
- MRT (mean residence time) ([5]; 180 mg/kg): 35.42±5.940 H
- Tmax (time of peak concentration) ([5]; 180 mg/kg): 1.833±0.753 H
- Vd (steady-state volume of distribution) ([5]; 180 mg/kg): 4620 ± 829.9 mL
- ke (elimination rate constant) ([5]; 180 mg/kg): 0.025 ± 0.003 h⁻¹
- t1/2 (half-life) ([5]; 180 mg/kg): 27.88±3.221 H
- AUC0–96 (area under the curve up to 96 h) ([5]; 720 mg/kg): 1216 ± 402.2 µg·h/mL
- AUC0–∞ (area under the total concentration-time curve) ([5]; 720 mg/kg): 1316 ± 449.7 µg·h/mL
- CL (systemic clearance) ([5]; 720 mg/kg): 153.7 ± 62.35 mL/h
- Cmax (maximum concentration) ([5]; 720 mg/kg): 49290 ± 9939 ng/mL
- MRT (mean residence time) ([5]; 720 mg/kg): 37.57±4.676 H
- Tmax (time of peak concentration) ([5]; 720 mg/kg): 2.167±0.753 H
- Vd (steady-state volume of distribution) ([5]; 720 mg/kg): 5583 ± 2416 mL
- ke (elimination rate constant) ([5]; 720 mg/kg): 0.028 ± 0.003 h⁻¹
- t1/2 (half-life) ([5]; 720 mg/kg): 24.92±2.178 H
- secretion of HBV antigens and HBV DNA (hepatitis B virus; HepG2.2.15 cells): effectively suppressed
- activity against HBV (hepatitis B virus; HepG 2.2.15): high activity against HBV
- toxicity (hepatitis B virus; HepG 2.2.15): low toxicity
- reproductive toxicity [6]: no obvious reproductive toxicity
